Experimental data reported in paper PMC11601558, “SLC6A19 inhibition facilitates urinary neutral amino acid excretion and lowers plasma phenylalanine” (JCI Insight, 2024).

System: healthy volunteers
Assay: Phase 1 safety and tolerability, single ascending dose (SAD) cohorts
Assay type: in vivo, human
Conditions: for AEs leading to IP discontinuation / Any CTCAE Grade ≥ 3 / Any TEAE / Death / SAE / TEAE Alanine aminotransferase increased / TEAE Aspartate aminotransferase increased / TEAE Blood creatine phosphokinase increased / TEAE Catheter site pain / TEAE Dizziness / TEAE Headache / TEAE Hematuria / TEAE Nausea / TEAE Pyrexia / TEAE Syncope / TEAE Upper respiratory tract infection / TEAE Urinary tract infection: n = 6
Description: Parts A and B of this phase 1, randomized, double-blind, placebo-controlled SAD and MAD oral dose study with JNT-517 were conducted in healthy volunteers. The primary objective for these studies was to assess the safety and tolerability of single and multiple doses of JNT-517 in healthy participants. The secondary objective for these studies was to assess the PK of single and multiple oral doses of JNT-517.
Eligible participants included males and females 18 to 55 years of age, medically healthy with no clinically notable medical history, a BMI of 18–40 kg/m^2 and total body weight > 50 kg (110 lbs), and who have been nonsmokers for at least 2 weeks prior to and throughout dosing.
In total, 40 participants who were healthy adult were randomized to receive JNT-517 (10–170 mg) or placebo (3:1 ratio) in 5 cohorts of 8 participants as SADs. […] Within each SAD cohort, a sentinel group of 2 participants were initially randomized to receive JNT-517 or placebo in a 1:1 ratio. Once safety was confirmed for these 2 sentinel participants over a 48-hour observation period, the remaining 6 participants in the same cohort were randomized 5:1 to receive JNT-517 or placebo. Both JNT-517 and placebo were administered as an on-site compounded suspension.
In both SAD and MAD studies, safety and tolerability were assessed by AE monitoring, clinical laboratory tests (blood chemistries, hematology, coagulation, serology, and urinalysis), vital signs, 12-lead electrocardiograms, and physical examinations. Safety assessment and corresponding samples were collected on day-1 prior to dosing and days 1, 2, 3, and 8 for the SAD study or throughout the 14 days of dosing and day 21 for the MAD study.

SMILES: NC(=O)N1CCC[C@@H](N(C(=O)NCc2ccc(OC(F)(F)F)cc2F)C2CC2)C1 [JNT-517]
- AEs leading to IP discontinuation (SAD 10 mg): 0 Number (%)
- Any CTCAE Grade ≥ 3 (SAD 10 mg): 0 Number (%)
- Any TEAE (SAD 10 mg): 2 (33.3) Number (%)
- Death (SAD 10 mg): 0 Number (%)
- SAE (SAD 10 mg): 0 Number (%)
- TEAE Alanine aminotransferase increased (SAD 10 mg): 0 Number (%)
- TEAE Aspartate aminotransferase increased (SAD 10 mg): 0 Number (%)
- TEAE Blood creatine phosphokinase increased (SAD 10 mg): 0 Number (%)
- TEAE Catheter site pain (SAD 10 mg): 1 (16.7) Number (%)
- TEAE Dizziness (SAD 10 mg): 1 (16.7) Number (%)
- TEAE Headache (SAD 10 mg): 1 (16.7) Number (%)
- TEAE Hematuria (SAD 10 mg): 0 Number (%)
- TEAE Nausea (SAD 10 mg): 1 (16.7) Number (%)
- TEAE Pyrexia (SAD 10 mg): 0 Number (%)
- TEAE Syncope (SAD 10 mg): 0 Number (%)
- TEAE Upper respiratory tract infection (SAD 10 mg): 0 Number (%)
- TEAE Urinary tract infection (SAD 10 mg): 0 Number (%)
- AEs leading to IP discontinuation (SAD 25 mg): 0 Number (%)
- Any CTCAE Grade ≥ 3 (SAD 25 mg): 1 (16.7) Number (%)
- Any TEAE (SAD 25 mg): 2 (33.3) Number (%)
- Death (SAD 25 mg): 0 Number (%)
- SAE (SAD 25 mg): 0 Number (%)
- TEAE Alanine aminotransferase increased (SAD 25 mg): 1 (16.7) Number (%)
- TEAE Aspartate aminotransferase increased (SAD 25 mg): 1 (16.7) Number (%)
- TEAE Blood creatine phosphokinase increased (SAD 25 mg): 1 (16.7) Number (%)
- TEAE Catheter site pain (SAD 25 mg): 0 Number (%)
- TEAE Dizziness (SAD 25 mg): 0 Number (%)
- TEAE Headache (SAD 25 mg): 0 Number (%)
- TEAE Hematuria (SAD 25 mg): 1 (16.7) Number (%)
- TEAE Nausea (SAD 25 mg): 0 Number (%)
- TEAE Pyrexia (SAD 25 mg): 0 Number (%)
- TEAE Syncope (SAD 25 mg): 0 Number (%)
- TEAE Upper respiratory tract infection (SAD 25 mg): 0 Number (%)
- TEAE Urinary tract infection (SAD 25 mg): 0 Number (%)
- AEs leading to IP discontinuation (SAD 50 mg): 0 Number (%)
- Any CTCAE Grade ≥ 3 (SAD 50 mg): 1 (16.7) Number (%)
- Any TEAE (SAD 50 mg): 2 (33.3) Number (%)
- Death (SAD 50 mg): 0 Number (%)
- SAE (SAD 50 mg): 0 Number (%)
- TEAE Alanine aminotransferase increased (SAD 50 mg): 0 Number (%)
- TEAE Aspartate aminotransferase increased (SAD 50 mg): 0 Number (%)
- TEAE Blood creatine phosphokinase increased (SAD 50 mg): 0 Number (%)
- TEAE Catheter site pain (SAD 50 mg): 0 Number (%)
- TEAE Dizziness (SAD 50 mg): 0 Number (%)
- TEAE Headache (SAD 50 mg): 1 (16.7) Number (%)
- TEAE Hematuria (SAD 50 mg): 0 Number (%)
- TEAE Nausea (SAD 50 mg): 0 Number (%)
- TEAE Pyrexia (SAD 50 mg): 0 Number (%)
- TEAE Syncope (SAD 50 mg): 1 (16.7) Number (%)
- TEAE Upper respiratory tract infection (SAD 50 mg): 1 (16.7) Number (%)
- TEAE Urinary tract infection (SAD 50 mg): 0 Number (%)
- AEs leading to IP discontinuation (SAD 100 mg): 0 Number (%)
- Any CTCAE Grade ≥ 3 (SAD 100 mg): 0 Number (%)
- Any TEAE (SAD 100 mg): 0 Number (%)
- Death (SAD 100 mg): 0 Number (%)
- SAE (SAD 100 mg): 0 Number (%)
- TEAE Alanine aminotransferase increased (SAD 100 mg): 0 Number (%)
- TEAE Aspartate aminotransferase increased (SAD 100 mg): 0 Number (%)
- TEAE Blood creatine phosphokinase increased (SAD 100 mg): 0 Number (%)
- TEAE Catheter site pain (SAD 100 mg): 0 Number (%)
- TEAE Dizziness (SAD 100 mg): 0 Number (%)
- TEAE Headache (SAD 100 mg): 0 Number (%)
- TEAE Hematuria (SAD 100 mg): 0 Number (%)
- TEAE Nausea (SAD 100 mg): 0 Number (%)
- TEAE Pyrexia (SAD 100 mg): 0 Number (%)
- TEAE Syncope (SAD 100 mg): 0 Number (%)
- TEAE Upper respiratory tract infection (SAD 100 mg): 0 Number (%)
- TEAE Urinary tract infection (SAD 100 mg): 0 Number (%)
- AEs leading to IP discontinuation (SAD 170 mg): 0 Number (%)
- Any CTCAE Grade ≥ 3 (SAD 170 mg): 0 Number (%)
- Any TEAE (SAD 170 mg): 1 (16.7) Number (%)
- Death (SAD 170 mg): 0 Number (%)
- SAE (SAD 170 mg): 0 Number (%)
- TEAE Alanine aminotransferase increased (SAD 170 mg): 0 Number (%)
- TEAE Aspartate aminotransferase increased (SAD 170 mg): 0 Number (%)
- TEAE Blood creatine phosphokinase increased (SAD 170 mg): 0 Number (%)
- TEAE Catheter site pain (SAD 170 mg): 0 Number (%)
- TEAE Dizziness (SAD 170 mg): 0 Number (%)
- TEAE Headache (SAD 170 mg): 0 Number (%)
- TEAE Hematuria (SAD 170 mg): 0 Number (%)
- TEAE Nausea (SAD 170 mg): 0 Number (%)
- TEAE Pyrexia (SAD 170 mg): 1 (16.7) Number (%)
- TEAE Syncope (SAD 170 mg): 0 Number (%)
- TEAE Upper respiratory tract infection (SAD 170 mg): 0 Number (%)
- TEAE Urinary tract infection (SAD 170 mg): 1 (16.7) Number (%)
- incidence of adverse events (AE) (SAD cohorts, all JNT-517 doses (7 of 30)): 23.3%
- safety and tolerability (healthy participants, SAD 10–170 mg and MAD 14 days): safe and well tolerated
